In patent publication US7432262B2, “Imidazopyridazinediones, their preparation and their use as pharmaceutical compositions” (Boehringer Ingelheim International GmbH, priority 2004, dated 2008):

biological target: T1, DPP-IV (Homo sapiens, UniProt P27487); test: DPP-IV assay with Caco-2 cell extract as DPP IV source; type: biochemical; conditions: extract of human colon carcinoma cell line Caco-2; AFC substrate 100 μM; 60 minutes, ambient temperature; 11-point curves; read-out: DPP IV inhibition IC50
T1 construct: an extract of the human colon carcinoma cell line Caco-2 is used as the DPP IV source; endogenous in cells; host or cells: Caco-2 (human colon carcinoma), differentiated to induce DPP-IV expression; extract solubilized with Nonidet-P40
T1 sequence (P27487 whole entry): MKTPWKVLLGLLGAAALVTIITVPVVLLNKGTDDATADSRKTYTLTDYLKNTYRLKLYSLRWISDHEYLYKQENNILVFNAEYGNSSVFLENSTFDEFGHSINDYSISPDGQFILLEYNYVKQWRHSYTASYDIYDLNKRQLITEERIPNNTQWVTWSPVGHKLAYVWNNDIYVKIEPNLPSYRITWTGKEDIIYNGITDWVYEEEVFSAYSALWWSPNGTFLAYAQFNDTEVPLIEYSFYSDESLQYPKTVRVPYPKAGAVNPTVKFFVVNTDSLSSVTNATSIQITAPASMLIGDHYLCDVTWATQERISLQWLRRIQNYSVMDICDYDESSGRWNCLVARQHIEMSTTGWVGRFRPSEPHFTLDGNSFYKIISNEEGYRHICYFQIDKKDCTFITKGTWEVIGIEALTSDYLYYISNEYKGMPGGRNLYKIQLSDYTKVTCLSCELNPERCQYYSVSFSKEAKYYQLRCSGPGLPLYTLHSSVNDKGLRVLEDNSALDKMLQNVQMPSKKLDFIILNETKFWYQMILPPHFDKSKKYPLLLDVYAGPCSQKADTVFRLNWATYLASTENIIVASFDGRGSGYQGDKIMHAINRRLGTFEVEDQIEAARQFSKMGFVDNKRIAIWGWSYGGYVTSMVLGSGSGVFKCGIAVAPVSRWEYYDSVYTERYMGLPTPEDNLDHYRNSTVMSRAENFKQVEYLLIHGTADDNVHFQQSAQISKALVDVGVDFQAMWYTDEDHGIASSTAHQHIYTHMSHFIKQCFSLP
Protocol: The differentiation of the cells in order to induce the DPP-IV expression was carried out in accordance with the description by Reiher et al. in an article entitled “Increased expression of intestinal cell line Caco-2” that appeared in Proc. Natl. Acad. Sci. Vol. 90, pp. 5757-5761 (1993). The cell extract was obtained from cells solubilized in a buffer (10 mM Tris HCl, 0.15 M NaCl, 0.04 t.i.u. aprotinin, 0.5% Nonidet-P40, pH 8.0) by centrifugation at 35,000 g for 30 minutes at 4° C. (to remove cell debris).
The DPP-IV assay was carried out as follows:
50 μl of substrate solution (AFC; AFC is amido-4-trifluoromethylcoumarin), final concentration 100 μM, was placed in black microtitre plates. 20 μl of assay buffer (final concentrations 50 mM Tris HCl pH 7.8, 50 mM NaCl, 1% DMSO) was pipetted therein. The reaction was started by the addition of 30 μl of solubilized Caco-2 protein (final concentration 0.14 μg of protein per well). The test substances under investigation were typically added prediluted to 20 μl, while the volume of assay buffer was then reduced accordingly. The reaction was carried out at ambient temperature, the incubation period was 60 minutes. Then the fluorescence was measured in a Victor 1420 Multilabel Counter, with the excitation wavelength at 405 nm and the emission wavelength at 535 nm. Dummy values (corresponding to 0% activity) were obtained in mixtures with no Caco-2 protein (volume replaced by assay buffer), control values (corresponding to 100% activity) were obtained in mixtures without any added substance. The potency of the test substances in question, expressed as IC50 values, were calculated from dosage/activity curves consisting of 11 measured points in each case.

**Q.** How did the IC50 turn out when `CC#CCn1c(N2CCC[C@@H](N)C2)nc2c(=O)n(Cc3ccccc3)n(Cc3ccc4ccccc4n3)c(=O)c21` [1(3), (R)-1-(but-2-ynyl)-2-(3-amino-piperidin-1-yl)-5-(phenylmethyl)-6-(quinolin-2-ylmethyl)-5,6-dihydro-1H-imidazo[4,5-d]pyridazine-4,7-dione×2 trifluoroacetic acid] was run?
**A.** 14 nM

**Q.** With `CC#CCn1c(N2CCC[C@@H](N)C2)nc2c(=O)n(CC#N)n(Cc3ccc4ccccc4n3)c(=O)c21` [Example 1, (R)-1-(but-2-ynyl)-2-(3-amino-piperidin-1-yl)-5-cyanomethyl-6-(quinolin-2-ylmethyl)-5,6-dihydro-1H-imidazo[4,5-d]pyridazine-4,7-dione×2 trifluoroacetic acid] as the compound, how does the IC50 read?
**A.** 1 nM

**Q.** For `CC#CCn1c(N2CCC[C@@H](N)C2)nc2c(=O)n(C)n(Cc3cccc4ccccc34)c(=O)c21` [1(4), (R)-1-(but-2-ynyl)-2-(3-amino-piperidin-1-yl)-5-methyl-6-(naphth-1-ylmethyl)-5,6-dihydro-1H-imidazo[4,5-d]pyridazine-4,7-dione×1 trifluoroacetic acid], which IC50 is on record?
**A.** 52 nM

**Q.** For `C=CCn1c(=O)c2nc(N3CCC[C@@H](N)C3)n(CC#CC)c2c(=O)n1Cc1ccc2ccccc2n1` [1(2), (R)-1-(but-2-ynyl)-2-(3-amino-piperidin-1-yl)-5-(prop-2-enyl)-6-(quinolin-2-ylmethyl)-5,6-dihydro-1H-imidazo[4,5-d]pyridazine-4,7-dione×2 trifluoroacetic acid], which IC50 is on record?
**A.** 6 nM

**Q.** With `CC#CCn1c(N2CCC[C@@H](N)C2)nc2c(=O)n(C)n(Cc3ccc4ccccc4n3)c(=O)c21` [1(1), (R)-1-(but-2-ynyl)-2-(3-amino-piperidin-1-yl)-5-methyl-6-(quinolin-2-ylmethyl)-5,6-dihydro-1H-imidazo[4,5-d]pyridazine-4,7-dione×2 trifluoroacetic acid] as the compound, how does the IC50 read?
**A.** 4 nM
